Measurements: patent US11401278B2, “Macrocyclic indole derivatives” (The Broad Institute, Inc., priority 2017, dated 2022)
“And” between values parts separate entries of the source, which are not always exact repeats. Equal values may be shown once. Where a name gives a salt, the structure may show the parent alone. Read-outs that look alike come from different tables or passages of the source.

Experiments:
BCL-XL = BCL-XL (Homo sapiens (Human), UniProt Q07817); assay: Protein-protein interaction assay BCL-XL/Bad BH3 peptide (BCL-XL assay, TR-FRET); assay type: binding; conditions: His-BCL-XL / Bad BH3 peptide, median
Method: Assay 2 Protein-Protein Interaction Assay: BCL-XL/Bad BH3 Peptide (BCL-XL Assay)
The dose-dependent inhibition by the compounds described in this invention of the interaction between BCL-XL and the BH3 domain of Bad (both human) was determined using a steady state binding competition assay with time-resolved fluorescence energy transfer (TR-FRET) readout. For that purpose BCL-XL (amino acids 1-212, C-terminal fused to a hexahistidine (6×His) tag (SEQ ID 3) and a synthetic Bad BH3-derived peptide of sequence Biotin-PEG2-PEG2-NLWAAQRYGRELRR-Nle-SDEFVDSFKK-amide (SEQ ID 4) served as protein receptor and tracer ligand respectively. The recombinant BCL-XL protein (expressed in E. coli) was purchased from BPS Bioscience (San Diego, Calif., USA). The Bad BH3-derived peptide can be obtained from e.g. Biosyntan (Berlin, Germany).
In the assay 11 different concentrations of each compound (0.1 nM, 0.33 nM, 1.1 nM, 3.8 nM, 13 nM, 44 nM, 0.15 μM, 0.51 μM, 1.7 μM, 5.9 μM and 20 μM) were typically measured as duplicates in the same microtiter plate. For that, 100-fold concentrated DMSO solutions were prepared by serial dilutions (1:3.4) of a 2 mM stock solution in a clear, 384-well microtiter plate (Greiner Bio-One, Frickenhausen, Germany). From there, 50 nl were transferred in a dark test plate (Greiner Bio-One, Frickenhausen, Germany). The assay was initiated by addition of 2 μl of a 2.5-fold concentrated His-BCL-XL solution (usually for a 1 nM end concentration in 5 μl reaction volume) in aqueous assay buffer [50 mM Tris/HCl pH 7, 100 mM sodium chloride (NaCl), 50 mM potassium fluoride (KF), 0.005% Tween-20, 2 mM DTT, 0.1% bovine gamma globulin (BGG)] to the compounds in the assay plate. This was followed by a 10-minute incubation step at 22° C. for pre-equilibration of the putative complex between His-BCL-XL and the compounds. After that, 3 μl of a 1.67-fold concentrated solution (in assay buffer) consisting of Bad BH3-derived peptide (1 nM end concentration) and TR-FRET detection reagents [1.67 nM anti-His-Eu cryptate and 1.67 nM streptavidin-XL665 (both from Cisbio Bioassays, Codolet, France)], were added.
The mixture was incubated in the dark for one hour at 22° C. and then overnight at 4° C. The formation of BCL-XL/Bad complexes was determined by measuring the resonance energy transfer of the anti-His- Eu-cryptate antibody to the streptavidin-XL665 present in the reaction. For that purpose, the fluorescence emission at 620 nm and 665 nm after excitation at 330-350 nm was measured in a TR-FRET measuring instrument, for instance a Rubystar or a Pherastar (both from BMG Lab Technologies, Offenburg, Germany) or a Viewlux (Perkin-Elmer). The ratio of the emission at 665 nm and at 622 nm was used as indicator of the amount of BCL-XL/Bad complexes present.
The resulting data (ratio) were normalized, taking 0% inhibition as the mean value of control measurements (usually 32 data points) where all reagents were included. In this case 50 nl DMSO were used instead of compounds. A 100% inhibition corresponded to the mean value of control measurements (usually 32 data points) where all reagents except BCL-XL were included. IC50 values were determined by regression analysis based on a 4 parameter equation (minimum, maximum, IC50, Hill; Y=Max+(Min−Max)/(1+(X/IC50)^HiII) using the Screener Software (Genedata).

HMC-1-8 = assay: Antiproliferation assay (Assay 7), HMC-1-8; assay type: cell-based; conditions: CellTiter-Glo, several values per example, read-out: Antiproli HMC-1-8 [M] IC50
How it was run: (§1)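 Plate cells in treatment and day 0 reference plates; read day 0 plate with CellTiter-Glo after 10 min; incubate treated plates 72 h at 37° C; read them identically.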

MV-4-11 = assay: Antiproliferation assay (Assay 7), MV-4-11; assay type: cell-based; conditions: CellTiter-Glo, several values per example
How it was run: as §1

[1] = Homo sapiens, MV4-11, 72 h, read-out: Antiproli MV-4-11 [M] IC50

BCL-XL, sequence (Q07817 other isoform, or with tags, fused parts or gaps): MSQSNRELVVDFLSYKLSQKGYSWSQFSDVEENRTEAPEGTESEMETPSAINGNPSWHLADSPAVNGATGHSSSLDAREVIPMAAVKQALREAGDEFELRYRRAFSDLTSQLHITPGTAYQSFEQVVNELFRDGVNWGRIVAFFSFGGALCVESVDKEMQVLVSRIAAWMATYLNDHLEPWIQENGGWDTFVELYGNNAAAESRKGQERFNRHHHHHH

Row | IC50 (BCL-XL) | IC50 (MV-4-11; [1]) | SMILES | IC50 (HMC-1-8; 72 hours) | also measured
1 | > 20000 nM | 1.31e-06 M | CCc1c2c(nn1C)CN(C)S(=O)(=O)CCCn1c(C(=O)O)c(CCCOc3cccc4ccccc34)c3ccc(Cl)c-2c31 [Example 20, (rac)-13-Chloro-12-ethyl-8,11-dimethyl-1-(3-(naphthalen-1-yloxy)propyl)-5,6,9,11-tetrahydro-4H,8H-pyrazolo[3′,4′:4,5][1]thia[2,8]diazacycloundecino[6,7,8-hi]indole-2-carboxylic acid 7,7-dioxide] |  | 
2 | > 20000 nM | 2.1e-06 M | CCc1c2c(nn1C)CN(C)S(=O)(=O)CCCn1c(C(=O)O)c(CCCOc3cccc4c3CCC4)c3ccc(Cl)c-2c31 [Example 21, (rac)-13-Chloro-1-(3-((2,3-dihydro-1H-inden-4-yl)oxy)propyl)-12-ethyl-8,11-dimethyl-5,6,9,11-tetrahydro-4H,8H-pyrazolo[3′,4′:4,5][1]thia[2,8]diazacycloundecino[6,7,8-hi]indole-2-carboxylic acid 7,7-dioxide] |  | 
3 | > 20000 nM | 2.41e-06 M | CCc1c2c(nn1C)CN(C)S(=O)(=O)CCCn1c(C(=O)O)c(CCCOc3cc(C)c(Cl)c(C)c3)c3ccc(Cl)c-2c31 [Example 22, (rac)-13-Chloro-1-(3-(4-chloro-3,5-dimethylphenoxy)propyl)-12-ethyl-8,11-dimethyl-4,5,6,8,9,11-hexahydropyrazolo[3′,4′:4,5][1,2,8]thiadiazacycloundecino[6,7,8-hi]indole-2-carboxylic acid 7,7-dioxide] |  | 
4 | > 20000 nM | 1.96e-06 M | CCc1c2c(nn1C)CN(C)S(=O)(=O)CCCn1c(C(=O)O)c(CCCOc3cccc4c3CCCC4)c3ccc(Cl)c-2c31 [Example 23, (rac)-13-Chloro-12-ethyl-8,11-dimethyl-1-(3-((5,6,7,8-tetrahydronaphthalen-1-yl)oxy)propyl)-4,5,6,8,9,11-hexahydropyrazolo[3′,4′:4,5][1,2,8]thiadiazacycloundecino[6,7,8-hi]indole-2-carboxylic acid 7,7-dioxide] |  | 
5 | > 20000 nM | 2.5e-06 M | CCc1c2c(nn1C)CN(C)S(=O)(=O)CCCn1c(C(=O)O)c(CCCOc3ccc(F)c4ccccc34)c3ccc(Cl)c-2c31 [Example 24, (rac)-13-Chloro-12-ethyl-1-(34(4-fluoronaphthalen-1-yl)oxy)propyl)-8,11-dimethyl-4,5,6,8,9,11-hexahydropyrazolo[3′,4′:4,5][1,2,8]thiadiazacycloundecino[6,7,8-hi]indole-2-carboxylic acid 7,7-dioxide] |  | 
6 | > 20000 nM | 3.5e-06 M | Cc1c2c(nn1C)CN(C)S(=O)(=O)CCCn1c(C(=O)O)c(CCCOc3ccc(F)c4ccccc34)c3ccc(F)c-2c31 [Example 30, (rac)-13-Fluoro-1-(34(4-fluoronaphthalen-1-yl)oxy)propyl)-8,11,12-trimethyl-5,6,9,11-tetrahydro-4H,8H-pyrazolo[3′,4′:4,5][1]thia[2,8]diazacycloundecino[6,7,8-hi]indole-2-carboxylic acid 7,7-dioxide] |  | 

Further lines, the compound ahead of its results:

Row | SMILES | IC50 (BCL-XL) | IC50 (MV-4-11; [1]) | IC50 (HMC-1-8; 72 hours) | also measured
7 | Cc1c2c(nn1C)CN(C1CC1)S(=O)(=O)CCCn1c(C(=O)O)c(CCCOc3cccc4cc(F)ccc34)c3ccc(Cl)c-2c31 (racemic) [Example 41, (rac)-4-chloro-14-cyclopropyl-7-{3-[(6-fluoro-1-naphthyl)oxy]propyl}-2,3-dimethyl-11,12,14,15-tetrahydro-2H,10H-pyrazolo[3′,4′:4,5][1,2,8]thiadiazacycloundecino[6,7,8-hi]indole-8-carboxylic acid 13,13-dioxide] | 19000 nM |  | 3.9e-06 M | 
8 | CCc1c2c(nn1C)CN(CC)S(=O)(=O)CCCn1c(C(=O)O)c(CCCOc3cccc4cc(F)ccc34)c3ccc(Cl)c-2c31 (racemic) [Example 56, (rac)-4-chloro-3,14-diethyl-7-{3-[(6-fluoro-1-naphthyl)oxy]propyl}-2-methyl-11,12,14,15-tetrahydro-2H,10H-pyrazolo[3′,4′:4,5][1,2,8]thiadiazacycloundecino[6,7,8-hi]indole-8-carboxylic acid 13,13-dioxide] |  |  | 2.3e-06 M and 2.7e-06 M | IC50 (HMC-1-8; 72 h): 1.5e-06 M
9 | CCc1c2c(nn1C)C(CCN1CCOCC1)N(C)S(=O)(=O)CCCn1c(C(=O)O)c(CCCOc3cccc4cc(F)ccc34)c3ccc(Cl)c-2c31 (racemic) [Example 73, (rac)-(4-chloro-3-ethyl-7-{3-[(6-fluoronaphthalen-1-yl)oxy]propyl}-2,14-dimethyl-15-[2-(morpholin-4-yl)ethyl]-13,13-dioxo-10,11,12,13,14,15-hexahydro-2H-13lambda^6-pyrazolo[3′,4′:4,5][1,2,8]thiadiazacycloundecino[6,7,8-hi]indole-8-carboxylic acid (Racemate 1)] |  |  | 1e-06 M | 
10 | CCc1c2c(nn1C)CN(C1CC1)S(=O)(=O)CCCn1c(C(=O)O)c(CCCOc3cccc4cc(F)ccc34)c3ccc(Cl)c-2c31 (single isomer, unassigned; enantiomer 1) [Example 54, (−)-4-chloro-14-cyclopropyl-3-ethyl-7-{3-[(6-fluoronaphthalen-1-yl)oxy]propyl}-2-methyl-13,13-dioxo-10,11,12,13,14,15-hexahydro-2H-13lambda^6-pyrazolo[3′,4′:4,5][1,2,8]thiadiazacycloundecino[6,7,8-hi]indole-8-carboxylic acid N-ethylethanamine Salt (Enantiomer 1)] |  |  | 2.2e-06 M and 2.5e-06 M | 
11 | CCc1c2c(nn1C)CN(CC)S(=O)(=O)CCCn1c(C(=O)O)c(CCCOc3cccc4cc(F)ccc34)c3ccc(Cl)c-2c31 (single isomer, unassigned; enantiomer 1) [Example 57, (+)-4-chloro-3,14-diethyl-7-{3-[(6-fluoronaphthalen-1-yl)oxy]propyl}-2-methyl-13,13-dioxo-10,11,12,13,14,15-hexahydro-2H-13lambda^6-pyrazolo[3′,4′:4,5][1,2,8]thiadiazacycloundecino[6,7,8-hi]indole-8-carboxylic acid N-ethylethanamine Salt (Enantiomer 1)] |  |  | 9.1e-07 M and 1.3e-06 M | 
12 | CCc1c2c(nn1C)CN(C)S(=O)(=O)CCCn1c(C(=O)O)c(CCCOc3cccc4cc(F)ccc34)c3ccc(F)c-2c31 (single isomer, unassigned; enantiomer 2) [Example 9, (−)-3-Ethyl-4-fluoro-7-{3-[(6-fluoronaphthalen-1-yl)oxy]propyl}-2,14-dimethyl-13,13-dioxo-10,11,12,13,14,15-hexahydro-2H-13λ^6-pyrazolo[3′,4′:4,5][1,2,8]thiadiazacycloundecino-[6,7,8-hi]indole-8-carboxylic acid (Enantiomer 2)] | > 20000 nM |  |  | IC50 (MV-4-11; 72 hours, listed as 09, read-out: Antiproli MV-4-11 [M] IC50): 1.98e-05 M
13 | CCNCC.CCc1c2c(nn1C)C(CCN1CCOCC1)N(C)S(=O)(=O)CCCn1c(C(=O)O)c(CCCOc3cccc4cc(F)ccc34)c3ccc(Cl)c-2c31 (single isomer, unassigned; enantiomer 2) [Example 76, 4-chloro-3-ethyl-7-{3-[(6-fluoronaphthalen-1-yl)oxy]propyl}-2,14-dimethyl-15-[2-(morpholin-4-yl)ethyl]-13,13-dioxo-10,11,12,13,14,15-hexahydro-2H-13lambda^6-pyrazolo[3′,4′:4,5][1,2,8]thiadiazacycloundecino[6,7,8-hi]indole-8-carboxylic acid-N-ethylethanamine Salt (Enantiomer 2)] |  |  | 3.5e-07 M and 4.1e-07 M | 
